Source: ChEMBL document CHEMBL3616455, “Anti-adipogenic activity of a new cyclic diarylheptanoid isolated from Alnus japonica on 3T3-L1 cells via modulation of PPARγ, C/EBPα and SREBP1c signaling” (Bioorg Med Chem Lett, 2015)
The source made the active and inactive calls. The calls are words filed in the database; no cut-off is given here.

Experiments:
[1] = Downregulation of C/EBPbeta mRNA expression in mouse 3T3L1 preadipocytes at 50 to 100 uM measured on day 2 by qRT-PCR analysis; type: functional, cell-based; details: 3T3-L1
Mus musculus = organism: Mus musculus; experiment: Inhibition of PPARgamma/C/EBPalpha/SREBP1c in mouse 3T3L1 preadipocytes assessed as inhibition of adipocyte differentiation by measuring remaining lipid content at 100 uM measured on day 8 by Oil Red O staining-based spectrophotometric analysis relative to control; type: cell-based
[2] = target: T1, Sterol regulatory element-binding protein 1 (Mus musculus) (UniProt Q9WTN3); experiment: Inhibition of SREBP1c in mouse 3T3L1 preadipocytes assessed as downregulation of FAS mRNA expression at 50 to 100 uM after 8 days by qRT-PCR analysis; type: cell-based
T1 sequence (whole entry): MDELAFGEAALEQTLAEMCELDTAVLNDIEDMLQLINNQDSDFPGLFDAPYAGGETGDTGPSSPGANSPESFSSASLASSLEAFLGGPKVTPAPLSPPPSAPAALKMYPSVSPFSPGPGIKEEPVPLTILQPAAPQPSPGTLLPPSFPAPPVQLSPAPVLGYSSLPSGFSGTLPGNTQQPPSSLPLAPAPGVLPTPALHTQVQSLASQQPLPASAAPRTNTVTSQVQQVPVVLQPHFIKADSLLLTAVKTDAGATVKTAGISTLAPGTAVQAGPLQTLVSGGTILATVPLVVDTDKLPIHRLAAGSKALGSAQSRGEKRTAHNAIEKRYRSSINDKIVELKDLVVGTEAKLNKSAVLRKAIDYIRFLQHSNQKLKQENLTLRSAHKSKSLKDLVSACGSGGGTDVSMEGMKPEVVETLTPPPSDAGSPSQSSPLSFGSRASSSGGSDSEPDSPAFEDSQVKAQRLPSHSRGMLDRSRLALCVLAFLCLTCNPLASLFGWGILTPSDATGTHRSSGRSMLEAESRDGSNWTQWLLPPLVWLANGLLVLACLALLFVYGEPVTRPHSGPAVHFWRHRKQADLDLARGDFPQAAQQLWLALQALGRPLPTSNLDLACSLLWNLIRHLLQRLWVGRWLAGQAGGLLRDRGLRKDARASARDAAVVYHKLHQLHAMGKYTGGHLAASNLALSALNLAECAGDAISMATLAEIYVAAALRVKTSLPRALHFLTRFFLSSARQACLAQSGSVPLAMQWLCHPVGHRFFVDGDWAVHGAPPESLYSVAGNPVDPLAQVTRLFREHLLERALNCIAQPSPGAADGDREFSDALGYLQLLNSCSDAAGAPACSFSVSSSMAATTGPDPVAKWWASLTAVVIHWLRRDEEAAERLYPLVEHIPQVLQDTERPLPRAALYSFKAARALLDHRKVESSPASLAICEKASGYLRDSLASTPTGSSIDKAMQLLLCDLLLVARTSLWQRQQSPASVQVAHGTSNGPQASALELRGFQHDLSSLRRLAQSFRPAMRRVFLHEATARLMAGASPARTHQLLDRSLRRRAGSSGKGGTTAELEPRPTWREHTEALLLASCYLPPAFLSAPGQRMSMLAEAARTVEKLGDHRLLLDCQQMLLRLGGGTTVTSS

[3] = target: T1, Sterol regulatory element-binding protein 1 (Mus musculus); experiment: Inhibition of SREBP1c in mouse 3T3L1 preadipocytes at 50 to 100 uM after 8 days by Western blot analysis; type: cell-based
[4] = target: T1, Sterol regulatory element-binding protein 1 (Mus musculus); experiment: Inhibition of SREBP1c in mouse 3T3L1 preadipocytes assessed as downregulation of SCD-1 mRNA expression at 50 to 100 uM after 8 days by qRT-PCR analysis; type: cell-based
[5] = Downregulation of LPL mRNA expression in mouse 3T3L1 preadipocytes at 50 to 100 uM after 8 days by qRT-PCR analysis; type: functional, cell-based; details: 3T3-L1
[6] = Downregulation of C/EBPdelta mRNA expression in mouse 3T3L1 preadipocytes at 50 to 100 uM measured on day 2 by qRT-PCR analysis; type: functional, cell-based; details: 3T3-L1
[7] = target: T2, Peroxisome proliferator-activated receptor gamma (Mus musculus) (UniProt P37238); experiment: Inhibition of PPARgamma in mouse 3T3L1 preadipocytes at 50 to 100 uM after 8 days by Western blot analysis relative to control; type: cell-based
T2 sequence (whole entry): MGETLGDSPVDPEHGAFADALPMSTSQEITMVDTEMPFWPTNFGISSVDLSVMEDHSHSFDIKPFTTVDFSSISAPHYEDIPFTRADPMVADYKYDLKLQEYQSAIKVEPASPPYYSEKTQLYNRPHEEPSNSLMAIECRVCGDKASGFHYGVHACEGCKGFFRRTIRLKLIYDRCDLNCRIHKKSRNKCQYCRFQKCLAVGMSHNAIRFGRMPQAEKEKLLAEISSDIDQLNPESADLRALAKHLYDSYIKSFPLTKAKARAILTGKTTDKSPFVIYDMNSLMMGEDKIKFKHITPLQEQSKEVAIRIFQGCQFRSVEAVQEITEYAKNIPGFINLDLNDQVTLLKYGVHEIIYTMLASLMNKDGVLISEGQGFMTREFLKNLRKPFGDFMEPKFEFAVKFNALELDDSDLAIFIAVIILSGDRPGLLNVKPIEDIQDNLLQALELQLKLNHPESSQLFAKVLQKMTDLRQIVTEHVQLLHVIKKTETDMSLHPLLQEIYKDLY

[8] = target: CCAAT/enhancer-binding protein alpha (Mus musculus) (UniProt P53566); experiment: Inhibition of C/EBPalpha in mouse 3T3L1 preadipocytes at 50 to 100 uM after 8 days by Western blot analysis relative to control; type: cell-based
CCAAT/enhancer-binding protein alpha (Mus musculus), sequence (P53566 whole entry): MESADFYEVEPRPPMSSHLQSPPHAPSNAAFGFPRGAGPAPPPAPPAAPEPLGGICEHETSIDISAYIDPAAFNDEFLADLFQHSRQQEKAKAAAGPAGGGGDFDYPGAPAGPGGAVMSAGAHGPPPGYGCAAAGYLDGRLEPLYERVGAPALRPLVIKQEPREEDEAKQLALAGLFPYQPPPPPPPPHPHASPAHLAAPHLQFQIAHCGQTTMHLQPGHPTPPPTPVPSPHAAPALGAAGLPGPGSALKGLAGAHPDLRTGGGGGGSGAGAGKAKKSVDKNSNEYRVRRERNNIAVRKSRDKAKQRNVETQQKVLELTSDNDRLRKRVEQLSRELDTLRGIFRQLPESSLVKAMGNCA

With O=C1CCc2ccc(O)c(c2)-c2cc(ccc2O)CCC(=O)C1O the Activity [1] was “Active”, the Activity (Mus musculus) was 11.6% and the inhibition [2] was “Active”. For the same molecule, the inhibition [3] was “Active”, the inhibition [4] was “Active” and the Activity [5] was “Active”. For the same molecule, the Activity [6] was “Active”, the inhibition [7] was “Active” and the inhibition [8] was “Active”.

For O=C(CCc1ccc(O)c(O)c1)C[C@H](CCc1ccc(O)c(O)c1)O[C@@H]1OC[C@@H](O)[C@H](O)[C@H]1OC(=O)/C=C/c1ccc(O)cc1, the Activity (Mus musculus) was 95.7%.

Oc1ccc2cc1-c1cc(ccc1O)CC(O)C(O)CC(O)C(O)C2 (stereo not given) gave an Activity (Mus musculus) of 58.5%.

Work on COc1cc(/C=C/C(=O)O[C@H]2[C@H](O[C@@H](CCc3ccc(O)c(O)c3)CC(=O)CCc3ccc(O)c(O)c3)OC[C@@H](O)[C@@H]2O)ccc1O yielded an Activity (Mus musculus) of 71.3%.

With O=C1CCCCc2ccc(O)c(c2)-c2cc(ccc2O)CC1 the Activity (Mus musculus) was 54.4%.

Work on O=C(CCc1ccc(O)c(O)c1)C[C@H](CCc1ccc(O)c(O)c1)O[C@@H]1OC[C@@H](O)[C@H](O)[C@H]1OC(=O)/C=C/c1ccccc1 yielded an Activity (Mus musculus) of 85.6%.

With O=C(O[C@@H]1Cc2c(O)cc(O)cc2O[C@@H]1c1cc(O)c(O)c(O)c1)c1cc(O)c(O)c(O)c1 the Activity (Mus musculus) was 54.5%.
